In patent US12617767B2, “Crystalline forms of somatostatin modulators” (Crinetics Pharmaceuticals, Inc., priority 2019, dated 2026):
Where two headings read alike, the source gives them in different places.

Experiments:
Format in all cases: physicochemical
[1] = Stability of XRPD pattern on drying
Method: Short term slurries were carried out at two temperatures in 14 solvents. About 25 mg solid was added to a 2 mL vial followed by 0.70 mL of solvent. If all solids dissolved, more solid was added until a slurry was formed within reason. Slurries were stirred at constant temperature for four days (ambient temperature, 21-23° C.; or high temperature, 50° C.). After stirring for four days, solids were allowed to settle and were then recovered for XRPD analysis. XRPD analysis was performed on the wet cake, and if a new pattern was observed, the sample was dried in a vacuum oven at 50° C. for a minimum of 4 hours, then the dried sample was analyzed by XRPD.
Stability on Drying: A sample of Pattern B was prepared on an XRPD sample holder and analysed by XRPD to create a baseline. The disk was then left in a vacuum oven at 50° C. under static vacuum for 3 days. On the third day, the sample was removed from the oven and the “dry” pattern was recorded immediately.
Compound A⋅2MSA (Pattern A) was slurried in EtOH overnight at room temperature (ca. 16 hours). […] The bulk was dried in a vacuum oven at 50° C. under dynamic vacuum for 4.5 hours. The dried solids were removed from the oven and a “dry” XRPD analysis was collected.

[2] = Dynamic Vapor Sorption (DVS)
Method: Dynamic Vapor Sorption (DVS) was done using a DVS Intrinsic 1. The sample is loaded into a sample pan and suspended from a microbalance. A typical sample mass for DVS measurement is 25 mg. Nitrogen gas bubbled through distilled water provides the desired relative humidity.
A typical measurement comprises the steps: • 1—Equilibrate at 50% RH • 2-50% to 2%. (50%, 40%, 30%, 20%, 10% and 2%) • a. Hold minimum of 5 mins and maximum of 240 minutes at each humidity. The pass criteria is less than 0.002% change • 3-2% to 95% (2%, 10%, 20%, 30%, 40%, 50%, 60%, 70%, 80%, 90%, 95%) • a. Hold minimum of 5 mins and maximum of 240 minutes at each humidity. The pass criteria is less than 0.002% change • 4-95% to 2% (95%, 80%, 70%, 60%, 50%, 40%, 30%, 20%, 10%, 2%) • a. Hold minimum of 5 mins and maximum of 240 minutes at each humidity. The pass criteria is less than 0.002% change • 5-2% to 50% (2%, 10%, 20%, 30%, 40%, 50%) • a. Hold minimum of 5 mins and maximum of 240 minutes at each humidity. The pass criteria is less than 0.002% change Dynamic Vapor Sorption Isotherm Plots of Solid Forms of Compound A⋅2MSA

[3] = Karl-Fischer titration for water determination; conditions: dimesylate
Method: Karl-Fischer titration for water determination was done using a Mettler Toledo C20S Coulometric KF Titrator equipped with a current generator cell with a diaphragm, and a doubleplatinum-pin electrode. Aquastar™ CombiCoulomat fritless reagent was used in both the anode and cathode compartments. Samples of approximately 0.03-0.10 g were dissolved in the anode compartment and titrated until the solution potential dropped below 100 mV. Hydranal 1 wt. % water standard is used for validation prior to sample analysis.

[4] = Kinetic solubility studies in FaSSIF and FeSSIF; conditions: 37° C.; for solubility thermodynamic at 1 day: thermodynamic from solid, read-out: Concentration
Method: The solubility of the dimesylate (Pattern B) and mono-HCl salts of Compound A was determined in FaSSIF (pH 6.5) at 37° C. after a slurry time of 5, 20 and 40 minutes. FaSSIF was warmed to 37° C. and added to a vial of ca. 9 mg of the salt to mark t=0. The mixture was kept stirring at 37° C. and a sample drawn with a syringe at t+5, 20 and 40 minutes. The samples were syringe filtered and the filtrate was diluted 2× to ensure no precipitation while waiting for HPLC analysis. The pH of the solution collected at 40 minutes was measured. The slurry was sampled again the following day and the supernatant from syringe filtration was analyzed directly by HPLC without dilution. The same experiment was run with FeSSIF (pH 5.0).

[5] = Equilibrium solubility in simulated fluids and water at 37° C.; conditions: for pH (24 hr): dimesylate; for solubility at 24 h: above calibration range
Method: The solubility Compound A⋅2MSA, Patterns A, B and I, was measured in water, fasted state simulated gastric fluid (FaSSGF) and fasted state simulated intestinal fluid (FaSSIF) at 37° C. by slurrying in the respective media for 24 hours. 1.5 mL of the fluid was stirred at 37° C. About 5 mg of the specified solid was added to FaSSIF and a thin slurry was immediately formed. As a test, approximately 80 and 60 mg of Pattern A was added to 1.5 mL of water and FaSSGF, respectively without formation of a slurry. Therefore, about 10 mg of the desired Pattern was added to water and FaSSGF solutions. The samples were allowed to stir at 37° C. for 24 hrs. The stir bars were removed from the FaSSIF vials and the solids allowed to settle for 0.5 hours at 37° C. The supernatant/solutions were syringe filtered and recovered for analysis by HPLC as well as for pH measurement.

Structure (SMILES): CS(=O)(=O)O.CS(=O)(=O)O.N#Cc1cccc(-c2ccc3ncc(-c4cc(F)cc(F)c4)c(N4CCC(N)CC4)c3c2)c1O [Pattern B, 3-(4-(4-aminopiperidin-1-yl)-3-(3,5-difluorophenyl)quinolin-6-yl)-2-hydroxybenzonitrile dimesylate]
- XRPD pattern upon drying ([1]; solids from short term slurries, vacuum oven at 50° C., minimum of 4 hours, dimesylate): stable upon drying
- XRPD pattern after drying ([1]; vacuum oven at 50° C. under static vacuum for 3 days): matched Pattern B
- XRPD form after the DVS experiment ([2]; 2-95% RH, dimesylate): no change in form
- reversible water uptake (DVS) ([2]; between 2% and 95% Relative Humidity (RH), dimesylate): 3.2 % w/w
- total mass difference (DVS) ([2]; over the 2-95% RH range): 3.2 wt. %
- mass change (DVS) ([2]; range of 10-80% RH): 1.3 wt. %
- Water Content [3]: 4.2% w/w
- pH of the solution collected at 40 minutes ([4]; FaSSIF (pH 6.5)): 6.22
- Concentration ([4]; FaSSIF (pH 6.5), 5 min): 13 µg/mL
- Concentration ([4]; FaSSIF (pH 6.5), 20 min): 15 µg/mL
- Concentration ([4]; FaSSIF (pH 6.5), 40 min): 13 µg/mL
- pH of the solution collected at 40 minutes ([4]; FeSSIF (pH 5.0)): 4.94
- Concentration ([4]; FeSSIF (pH 5.0), 5 min): 559 µg/mL
- Concentration ([4]; FeSSIF (pH 5.0), 20 min): 565 µg/mL
- Concentration ([4]; FeSSIF (pH 5.0), 40 min): 559 µg/mL
- solubility thermodynamic at 1 day ([4]; FaSSIF (pH 6.5)): 8 µg/mL
- solubility thermodynamic at 1 day ([4]; FeSSIF (pH 5.0)): 502 µg/mL
- comments ([5]; FaSSGF (pH 1.70), 24 hrs): dissolved
- pH (24 hr) ([5]; FaSSGF (pH 1.70)): 1.80
- solubility at 24 h ([5]; FaSSGF, 37 °C, pH 1.7, fassgf or other biorelevant, thermodynamic from solid, FaSSGF (pH 1.70), 24 hrs, mg of Compound A (free base), read-out: Concentration): > 6570 µg/mL
- comments ([5]; FaSSIF (pH 6.48), 24 hrs): disproportionated
- pH (24 hr) ([5]; FaSSIF (pH 6.48)): 6.02
- solubility thermodynamic at 24 h ([5]; FaSSIF, 37 °C, pH 6.48, fassif, thermodynamic from solid, FaSSIF (pH 6.48), 24 hrs, mg of Compound A (free base), read-out: Concentration): 11 µg/mL
- solubility at 24 h ([5]; water, 37 °C, water, thermodynamic from solid, water, 24 hrs, mg of Compound A (free base), read-out: Concentration): > 6250 µg/mL
- comments ([5]; water, 24 hrs): dissolved
- pH (24 hr) ([5]; water): 3.08
